Experimental data: ChEMBL document CHEMBL1201862, “PubChem BioAssay data set” (2004)
Where a name gives a salt, the structure may show the parent alone. Calls of active or inactive are those of the source. For most assays here, no stated cut-off is given here; in the data, actives have a measured EC50 and inactives only a lower limit.

Tests used:
[1] = Luminescence Cell-Based Dose Retest to Confirm Inhibitors of Cancer Stem Cells. [Related pubchem assays (depositor defined):AID2717, AID2721]; format: functional; details: Homo sapiens
[2] = target: T1, Heat shock factor protein 1 (Mus musculus, UniProt P38532); assay: decrease of HSF1-responsive luciferase luminescence – cell-based, NIH3T3, dose retest, confirmation (AID 2382); format: functional;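 further: NIH3T3 fibroblasts with HSF1-driven luciferase reporter stressed by proteasome inhibitor MG132; luminescence from HSF1-driven luciferase expression after 8 hours of MG132 stress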
T1 sequence (P38532 whole entry): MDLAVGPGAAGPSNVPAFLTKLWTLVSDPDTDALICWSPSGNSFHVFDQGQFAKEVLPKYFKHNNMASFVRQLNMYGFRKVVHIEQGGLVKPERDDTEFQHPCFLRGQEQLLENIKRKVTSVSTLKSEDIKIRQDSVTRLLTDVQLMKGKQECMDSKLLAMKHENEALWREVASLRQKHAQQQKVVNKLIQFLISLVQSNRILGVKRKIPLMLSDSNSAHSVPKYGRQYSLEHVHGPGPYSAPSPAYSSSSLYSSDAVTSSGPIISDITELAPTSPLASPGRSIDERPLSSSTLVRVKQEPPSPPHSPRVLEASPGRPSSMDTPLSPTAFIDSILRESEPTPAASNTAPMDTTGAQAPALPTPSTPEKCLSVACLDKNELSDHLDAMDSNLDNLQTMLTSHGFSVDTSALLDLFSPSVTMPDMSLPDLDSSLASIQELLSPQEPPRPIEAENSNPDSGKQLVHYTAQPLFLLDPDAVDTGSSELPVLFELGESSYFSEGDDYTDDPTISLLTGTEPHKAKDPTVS

[3] = fluconazole-exposed Candida albicans growth modulators – fluorescence, retest, confirmation (AID 2467); format: functional, cell-based
[4] = NIH-3T3 fibroblast cytotoxicity, dose response, cytotoxicity control, cell-based, fluorescence, Alamar Blue, secondary assay (AID 2327); format: functional;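 further: NIH-3T3 mouse fibroblasts cultured with fluconazole at 8 µg/mL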
[5] = target: T1, Heat shock factor protein 1; assay: enhancement of HSF1-driven luciferase signal – cell-based, NIH3T3, luminescence, dose retest, confirmation (AID 435004); format: functional;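 further: stress induced by proteasome inhibitor MG132 added 30 min after compound; luciferase reporter driven by HSF1 response element in NIH3T3 cells; actives raise luminescence as potentiators of the MG132 stress response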
[6] = test system: Streptococcus sp. 'group A'; assay: Streptococcus pyogenes SK(-)GAS viability under kanamycin – luminescence, BacTiterGlo, confirmation, counter-screen for streptokinase expression inhibitor project, dose response (AID 1900); format: functional, organism-based
Streptococcus = assay: GAS UMAA2166 growth inhibition – luminescence, BacTiterGlo, counter-screen for streptokinase expression inhibitor project, dose response (AID 1915); format: functional, organism-based;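 further: potency for reduction of bacterial viability or growth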
[7] = NIH3T3 cell viability loss – ATP luminescence, mouse fibroblasts, counter-screen, dose response (AID 2010); format: functional, cell-based;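 further: cells exposed to compound for about 90 hours before reading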
[8] = Trypanosoma cruzi growth suppression in host cells – NIH3T3 host cells, beta-gal luminescence, confirmation (AID 2044); format: functional, cell-based;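 further: intracellular parasites grown in NIH/3T3 mouse fibroblasts as host cells; luminescent beta-galactosidase reporter signal from transgenic T. cruzi replicating inside host cells; inhibitors lower the luminescence signal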
[9] = viability of uninfected HEp-2 cells – cell-based, HTS, cytotoxicity control for RSV inhibitor project, dose response (AID 2410); format: functional; details: human respiratory syncytial virus
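Wherever AC50 is given: cells exposed to compound for roughly 70 hours or longer before luminescence read.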

Cc1cc(C)c2nc(O)c(CN(Cc3cccs3)C(S)=NCc3ccco3)cc2c1
AC50 [1]: 61.4 µM (active)

O=C(NCc1ccccc1)N1CCC(CO)(Cc2cccc(F)c2)CC1
EC50 [2]: > 195 µM (not active)

CCN(CC)CCOC(=O)c1ccc(N)cc1 [PROCAINE HYDROCHLORIDE]
EC50 [2]: > 195 µM (not active)

Cc1ccc(C)c(N2CCN(C(=O)c3cc(S(=O)(=O)N4CCCC4)cn3C)CC2)c1
EC50 [2]: > 195 µM (not active)

CCN=C(S)NNC(=O)c1cc(-c2cccc(C)c2)nc2ccccc12
EC50 [3]: 2.5 µM (active) | EC50 [4]: 20.2 µM (inconclusive)

O=c1c2ccccc2nc(SCc2cn3ccsc3n2)n1-c1ccccc1
EC50 [5]: > 260 µM (inactive)

C[C@@H](O)[C@H]1C(=O)N2C(C(=O)O)=C(S[C@@H]3CN[C@H](C(=O)N(C)C)C3)[C@H](C)[C@H]12 [MEROPENEM]
EC50 [6]: 0.153 µM (active) | EC50 (Streptococcus): 1.15 µM (active)

Cc1ccc(/C=C/C(=O)NCCc2ccccc2)o1
AC50 [1]: > 195 µM (inactive)

CCN(CC)S(=O)(=O)c1ccc(N2CCN(C)CC2)c(NC(=O)COc2ccc(F)cc2Cl)c1
EC50 [7]: > 60 µM (not active) | EC50 [8]: 0.252 µM (active)

c1ccc2c(c1)OCC(c1csc3ncnc(N4CCCCC4)c13)O2 (stereo unspecified)
CC50 [9]: 16.8 µM (active)

O=C(Nc1ccc(Cl)cc1)N1CCCN(c2ccc(C(F)(F)F)cc2[N+](=O)[O-])CC1
AC50 [1]: 4.79 µM (active)

O=C(NC1CCCCC1)C1CCN(c2nccs2)CC1
EC50 [2]: > 195 µM (not active)

COc1cccc(-c2nc(CCl)cs2)c1
EC50 [7]: > 60 µM (not active) | EC50 [8]: 3.25 µM (active)

COc1ccc(NC(=O)CN2C(=O)COc3ccc(S(=O)(=O)N4CCOCC4)cc32)c(OC)c1
EC50 [2]: > 195 µM (not active)

O=C(Nc1ccc(Br)cn1)c1cccc(-c2cc3ccccc3oc2=O)c1
AC50 [1]: 8.81 µM (active)

COc1ccccc1C(=O)Nc1ccccc1N1CCN(C(=O)c2ccc(Cl)cc2)CC1
CC50 [9]: 26.5 µM (active)

COc1cccc(CN(C(=O)Cc2c[nH]c3ccccc23)C(C(=O)NC2CCCCC2)c2cccs2)c1 (stereo unspecified)
EC50 [7]: > 60 µM (not active) | EC50 [8]: 1.98 µM (active)

CC(=S)/C=C1\Sc2ccccc2N1C
EC50 [3]: 1.9 µM (active) | EC50 [7]: > 60 µM (not active) | EC50 [4]: > 150 µM (inactive) | EC50 [8]: 0.739 µM (active)

COc1ccc(C2NC(S)=NC3=C2CCc2cc(OC)ccc23)cc1 (stereo unspecified)
CC50 [9]: 26.4 µM (active)

O=C(Nc1ccsc1C(=O)O)c1cccc(Oc2ccccc2)c1
CC50 [9]: 18.3 µM (active)

Cc1nn(CC(=O)NCCCc2ccccc2)c(C)c1[N+](=O)[O-]
EC50 [4]: > 150 µM (inactive)

C/C(=N\NC(=O)c1nn(C)c(C)c1Br)c1ccc(NC(=O)C2CCCC2)cc1
EC50 [3]: > 38 µM (not active) | EC50 [4]: 34.4 µM (active)

COc1ccccc1-n1c(O)cc(=O)nc1SCC(=O)Nc1ccc(Br)cc1
EC50 [6]: 6.68 µM (active) | EC50 (Streptococcus): 22.6 µM (active)

Cc1nnc(-c2cnn(-c3ccccc3)c2N)n1Cc1cccc(C(F)(F)F)c1
EC50 [2]: > 195 µM (not active)

COc1cc(/C=C/C(=O)N2CCOCC2)ccc1OCc1ccccc1
EC50 [5]: > 260 µM (inactive)

CC(=O)Nc1ccc(S(=O)(=O)NCc2ccc(C(=O)NCc3ccc4c(c3)OCO4)cc2)cc1
EC50 [2]: > 195 µM (not active)

CCOc1ccccc1CN1CCN(CC2=Cc3cc(OC)ccc3OC2)CC1CCO (stereo unspecified)
EC50 [7]: > 60 µM (not active) | EC50 [8]: 1.29 µM (active)

CC(Oc1ccc(Br)cc1)C(=O)NC1CCN(Cc2ccccc2)CC1 (stereo unspecified)
EC50 [7]: > 60 µM (not active) | EC50 [8]: 0.579 µM (active)

NS(=O)(=O)c1ccc(CCNCC#Cc2ccccc2)cc1
EC50 [2]: > 195 µM (not active)

Cc1cc(C)nc(N=C(NCc2ccc3c(c2)OCO3)NC(=O)Nc2ccccc2)n1
EC50 [3]: > 38 µM (not active) | EC50 [4]: > 150 µM (inactive)

COc1ccc(Nc2nc(-c3ccccc3)nc3ccccc23)cc1
CC50 [9]: 13.1 µM (active)

COc1cc(NS(=O)(=O)c2ccc(NC(=S)NC(=O)/C=C/c3ccc(OC)c(OC)c3)cc2)ncn1
EC50 [2]: > 195 µM (not active)

CNC(=S)N/N=C/c1ccc(-c2ccc(Cl)c([N+](=O)[O-])c2)o1
EC50 [3]: > 38 µM (not active) | EC50 [4]: > 150 µM (inconclusive)

Cc1ccc(NC(=O)NC2CCCCCCC2)c(C)c1
EC50 [3]: > 38 µM (not active) | EC50 [4]: 19.6 µM (inconclusive)

N#Cc1c(F)cccc1N1CCOCC1
CC50 [9]: 23.6 µM (active)

C=CCOc1c(Cl)cc(CNc2ccc(C)c(Cl)c2)cc1OC
EC50 [7]: 0.491 µM (active) | EC50 [8]: 2.75 µM (active)

Cc1cc(NC(=O)CSc2nnc(C)n2C)no1
EC50 [2]: > 195 µM (not active)

Cc1nc2ccccc2c(N)c1C(=O)/C=C/c1ccccc1
CC50 [9]: 9.1 µM (active)

COc1cccc(-c2ccc(SCC(=O)c3ccccc3)nn2)c1
CC50 [9]: 35.2 µM (active)

CN1CCN(C(=O)CCc2ccc(S(=O)(=O)NC3CCCCC3)cc2)CC1
EC50 [7]: > 60 µM (not active) | EC50 [8]: 0.141 µM (active)

CC(=O)Oc1c(Cl)cc(Cl)cc1/C=C/c1ccc2ccccc2n1
AC50 [1]: 1.81 µM (active)

O=C(NC(=S)NCCc1ccccc1)C1CCCCC1
AC50 [1]: 10.6 µM (active)

Cc1cccc(CN2C(=O)[C@@H]3Cc4c([nH]c5ccccc45)C(C)(C)N3C2=O)c1
AC50 [1]: 11.9 µM (active)

Cc1nn(-c2ccccc2)c(Cl)c1/C=C1\C(=O)N(C)C(=S)N1C
CC50 [9]: 26.6 µM (active)

COc1ccc(Br)c2oc(SC)cc(=O)c12
CC50 [9]: > 50 µM (active)

O=C(NCc1ccccc1)C1CCCN(S(=O)(=O)c2cccc3nsnc23)C1 (stereo unspecified)
EC50 [2]: > 195 µM (not active)

CCOC(=O)C(O)(c1ccc(NC(=O)c2ccc(Cl)c(Cl)c2)cc1)C(F)(F)F (stereo unspecified)
CC50 [9]: 20.9 µM (active)

CCOC(=O)c1cnc(SC)nc1Oc1cccc(NS(=O)(=O)c2ccccc2)c1
EC50 [7]: > 60 µM (not active) | EC50 [8]: 1.64 µM (active)

COc1ccc(-n2nc(C(=O)NCC(=O)NCc3ccccc3OC)c3ccccc3c2=O)c(OC)c1
EC50 [2]: > 195 µM (not active)

O=C(O)/C=C\C(=O)Nc1ccc(OCc2ccccc2)cc1
EC50 [2]: 31 µM (active)

Cc1sc2ncnc(N3CCC(C(=O)Nc4nc(-c5cccs5)cs4)CC3)c2c1C
EC50 [7]: > 60 µM (not active) | EC50 [8]: 1.6 µM (active) | EC50 [2]: 1.07 µM (active)

COC(=O)c1c(C)nc(O)nc1SCc1cccc2ccccc12
CC50 [9]: > 50 µM (active)

CCC(=O)N1CCN(c2cc(N3CCN(C)CC3)c(F)cc2[N+](=O)[O-])CC1
EC50 [7]: > 60 µM (not active) | EC50 [8]: 0.765 µM (active)

Cc1ccc(SCCN=C(S)Nc2ccc(C)cc2C)cc1
EC50 [7]: > 60 µM (not active) | EC50 [8]: 2.2 µM (active)

O=C(c1ccc(C(=O)N2CCN(c3ccccc3F)CC2)nc1)N1CCN(c2ccccc2F)CC1
EC50 [3]: > 38 µM (not active) | EC50 [4]: > 160 µM (inactive)

Cc1ccsc1/C=C1\C(=O)NC(=S)N(C)C1=O
EC50 [2]: > 195 µM (not active)

Cc1ccc(/C=N/NC2=NC(=O)CS2)o1
CC50 [9]: 21.5 µM (active)

CNC(=O)c1ccc2c(c1)nnn2C
EC50 [3]: > 38 µM (not active) | EC50 [4]: 58.7 µM (active)

CCN(c1ccccc1)S(=O)(=O)c1cccc(C(=O)NCC(c2cccs2)N2CCOCC2)c1 (stereo unspecified)
AC50 [1]: > 195 µM (inactive)

O=C(Nc1ccc2c(c1)OCO2)c1ccc(COc2ccc3c(c2)CCC3)o1
AC50 [1]: 3.1 µM (active)

COC(=O)c1cc(=O)n(Cc2cccs2)/c(=N/c2ccc(F)cc2)s1
AC50 [1]: 3.81 µM (active)

NC(=O)c1c(NC(=O)c2ccncc2)sc2c1CCCC2
EC50 [3]: 2.12 µM (active) | EC50 [4]: > 150 µM (inactive)

CCCCC1SC(N/N=C/c2ccco2)=NC1=O (stereo unspecified)
EC50 [3]: 5.08 µM (active) | EC50 [4]: > 150 µM (inactive)

CO/N=C/c1ccc(N2CCN(C(=O)c3ccc(C)cc3)CC2)c([N+](=O)[O-])c1
EC50 [3]: > 38 µM (not active) | EC50 [4]: > 160 µM (inactive)

Cc1[nH]n(-c2cccc3ccccc23)c(=O)c1/C=N/NC(=O)c1cccc([N+](=O)[O-])c1
EC50 [3]: > 38 µM (not active) | EC50 [6]: 2.98 µM (active) | EC50 [4]: 12.1 µM (active) | EC50 (Streptococcus): 7.09 µM (active)

COc1ccc(S(=O)(=O)NCC(c2cccnc2)N2CCN(Cc3ccccc3)CC2)cc1 (stereo unspecified)
EC50 [7]: > 60 µM (not active) | EC50 [8]: 1.58 µM (active)

O=C(Nc1ccc(Cl)c([N+](=O)[O-])c1)c1ccc(NCCCN2CCOCC2)c([N+](=O)[O-])c1
EC50 [7]: > 60 µM (not active) | EC50 [8]: 0.963 µM (active)

O=C(c1ccc([N+](=O)[O-])s1)N1CCN(c2ccccc2)CC1
EC50 [7]: > 60 µM (not active) | EC50 [8]: 0.808 µM (active)
